Experimental data taken from ChEMBL document CHEMBL1157525, “The design and synthesis of potent and cell-active allosteric dual Akt 1 and 2 inhibitors devoid of hERG activity” (Bioorg Med Chem Lett, 2008).

Tests used:
[1] = target: T1, RAC-alpha serine/threonine-protein kinase (Homo sapiens, UniProt P31749); test: Inhibition of Akt1 by cellular assay
[2] = target: T2, RAC-beta serine/threonine-protein kinase (Homo sapiens, UniProt P31751); test: Inhibition of Akt2 by cellular assay
[3] = target: Voltage-gated inwardly rectifying potassium channel KCNH2 (Homo sapiens, UniProt Q12809); test: Inhibition of human ERG in embryonic kidney cells by radioligand-binding competition assay
Chain of Voltage-gated inwardly rectifying potassium channel KCNH2 (Q12809 whole entry): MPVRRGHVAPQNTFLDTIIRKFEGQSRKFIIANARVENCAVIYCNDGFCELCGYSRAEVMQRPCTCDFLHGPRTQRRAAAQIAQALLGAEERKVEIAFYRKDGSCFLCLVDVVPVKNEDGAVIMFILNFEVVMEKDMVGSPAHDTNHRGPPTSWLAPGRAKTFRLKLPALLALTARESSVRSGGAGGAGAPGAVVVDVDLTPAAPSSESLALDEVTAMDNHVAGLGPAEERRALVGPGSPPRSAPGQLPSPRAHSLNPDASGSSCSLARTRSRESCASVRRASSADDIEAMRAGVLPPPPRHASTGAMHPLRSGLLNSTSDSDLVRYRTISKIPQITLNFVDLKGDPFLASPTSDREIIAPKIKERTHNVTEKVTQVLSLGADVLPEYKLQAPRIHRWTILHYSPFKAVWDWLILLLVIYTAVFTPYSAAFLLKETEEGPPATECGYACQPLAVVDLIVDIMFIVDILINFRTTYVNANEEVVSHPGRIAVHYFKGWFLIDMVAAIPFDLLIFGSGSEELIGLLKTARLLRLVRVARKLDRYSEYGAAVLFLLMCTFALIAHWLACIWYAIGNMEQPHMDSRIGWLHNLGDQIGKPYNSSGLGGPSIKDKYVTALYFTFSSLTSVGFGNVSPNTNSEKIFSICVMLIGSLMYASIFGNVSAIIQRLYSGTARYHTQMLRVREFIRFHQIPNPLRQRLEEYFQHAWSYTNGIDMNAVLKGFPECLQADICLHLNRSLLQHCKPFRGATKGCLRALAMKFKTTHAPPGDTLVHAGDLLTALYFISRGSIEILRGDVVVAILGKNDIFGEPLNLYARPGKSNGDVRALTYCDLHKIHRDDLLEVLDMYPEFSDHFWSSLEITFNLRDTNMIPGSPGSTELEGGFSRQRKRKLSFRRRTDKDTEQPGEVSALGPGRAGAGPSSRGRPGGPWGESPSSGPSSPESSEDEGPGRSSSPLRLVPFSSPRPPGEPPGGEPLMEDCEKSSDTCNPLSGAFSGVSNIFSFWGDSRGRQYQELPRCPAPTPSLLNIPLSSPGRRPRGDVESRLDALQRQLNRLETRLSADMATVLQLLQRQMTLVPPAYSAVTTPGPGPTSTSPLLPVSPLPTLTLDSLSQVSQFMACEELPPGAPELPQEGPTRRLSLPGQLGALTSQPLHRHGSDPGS

[4] = target: T1, RAC-alpha serine/threonine-protein kinase; test: Inhibition of Akt1
[5] = target: T2, RAC-beta serine/threonine-protein kinase; test: Inhibition of Akt2

T2 sequence (P31751 whole entry): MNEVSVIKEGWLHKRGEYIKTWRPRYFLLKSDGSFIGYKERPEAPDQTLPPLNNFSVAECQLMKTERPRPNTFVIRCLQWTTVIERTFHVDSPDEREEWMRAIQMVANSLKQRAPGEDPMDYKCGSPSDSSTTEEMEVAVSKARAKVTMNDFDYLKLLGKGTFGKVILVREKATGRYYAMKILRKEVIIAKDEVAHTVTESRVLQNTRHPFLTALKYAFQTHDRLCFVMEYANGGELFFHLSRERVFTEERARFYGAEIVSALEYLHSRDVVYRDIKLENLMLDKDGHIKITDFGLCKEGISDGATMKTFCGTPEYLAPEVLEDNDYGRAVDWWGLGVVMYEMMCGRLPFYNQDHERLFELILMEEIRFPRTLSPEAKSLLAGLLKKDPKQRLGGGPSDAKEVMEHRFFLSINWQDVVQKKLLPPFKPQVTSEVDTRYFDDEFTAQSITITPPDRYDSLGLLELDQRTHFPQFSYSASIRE
T1 sequence (P31749 whole entry): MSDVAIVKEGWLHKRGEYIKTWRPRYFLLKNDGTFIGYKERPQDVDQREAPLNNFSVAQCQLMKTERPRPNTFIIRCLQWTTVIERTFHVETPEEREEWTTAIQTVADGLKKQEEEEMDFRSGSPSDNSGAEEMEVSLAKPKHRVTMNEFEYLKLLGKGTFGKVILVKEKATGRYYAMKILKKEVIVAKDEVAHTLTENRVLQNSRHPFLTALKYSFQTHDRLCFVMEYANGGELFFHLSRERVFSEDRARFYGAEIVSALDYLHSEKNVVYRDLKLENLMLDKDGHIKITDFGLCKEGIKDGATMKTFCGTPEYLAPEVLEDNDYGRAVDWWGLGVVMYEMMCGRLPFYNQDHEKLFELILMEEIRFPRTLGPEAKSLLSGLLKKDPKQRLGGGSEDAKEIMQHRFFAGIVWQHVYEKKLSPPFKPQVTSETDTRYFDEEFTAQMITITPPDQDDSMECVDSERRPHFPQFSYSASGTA

Row | Structure (SMILES) | IC50 [1] [nM] | IC50 [2] [nM] | IC50 [4] [nM] | IC50 [5] [nM] | IC50 [3] [nM]
1 | CN(C)CCN1CCN(c2ccc3nc(-c4ccccc4)c(-c4ccc(CN5CCC(c6nc(-c7ncccn7)n[nH]6)CC5)cc4)nc3n2)CC1 | 104 | 116 |  |  | > 10000
2 | [O-][n+]1ccc(-c2nnc(C3CCN(Cc4ccc(-c5nc6nc(N7CCN(CCO)CC7)ncc6cc5-c5ccccc5)cc4)CC3)[nH]2)cc1 | 67 | 146 |  |  | > 10000
3 | CN1CCN(c2ccc3nc(-c4ccc(CN5CCC(c6nnc(-c7ccccn7)[nH]6)CC5)cc4)c(-c4ccccc4)nc3n2)CC1 | 1410 | 827 |  |  | 
4 | O=c1ccc(-c2nnc(C3CCN(Cc4ccc(-c5nc6cc[nH]c(=O)c6cc5-c5ccccc5)cc4)CC3)[nH]2)c[nH]1 | 62 | 284 | 1 | 8 | > 10000
5 | OCCN1CCN(c2ccc3nc(-c4ccccc4)c(-c4ccc(CN5CCC(c6nc(-c7ncccn7)n[nH]6)CC5)cc4)nc3n2)CC1 | 72 | 190 |  |  | 
6 | O=c1[nH]ccc2nc(-c3ccc(CN4CCC(c5nnc(-c6cnccn6)[nH]5)CC4)cc3)c(-c3ccccc3)cc12 | 44 | 405 | 4 | 21 | 
7 | COc1ccc(-c2nnc(C3CCN(Cc4ccc(-c5nc6cc[nH]c(=O)c6cc5-c5ccccc5)cc4)CC3)[nH]2)cn1 | 40 | 159 | 3 | 16 | 1220
8 | CN1CCN(c2ccc3nc(-c4ccccc4)c(-c4ccc(CN5CCC(c6nnc(-c7ccc(N)nc7)[nH]6)CC5)cc4)nc3n2)CC1 | 70 | 225 |  |  | 
9 | CN1CCN(c2ncc3cc(-c4ccccc4)c(-c4ccc(CN5CCC(c6nnc(-c7ccc(=O)[nH]c7)[nH]6)CC5)cc4)nc3n2)CC1 | 71 | 188 |  |  | 
10 | CN1CCN(c2ncc3cc(-c4ccccc4)c(-c4ccc(CN5CCC(c6nnc(-c7cc[n+]([O-])cc7)[nH]6)CC5)cc4)nc3n2)CC1 | 88 | 185 |  |  | 9800
11 | Nc1ccc(-c2nnc(C3CCN(Cc4ccc(-c5nc6nc(N7CCN(CCO)CC7)ccc6nc5-c5ccccc5)cc4)CC3)[nH]2)cn1 | 115 | 230 |  |  | 
12 | CN1CCN(c2ccc3nc(-c4ccccc4)c(-c4ccc(CN5CCC(c6nnc(-c7ncccn7)[nH]6)CC5)cc4)nc3n2)CC1 | 52 | 192 |  |  | 
13 | Nc1ccc(-c2nnc(C3CCN(Cc4ccc(-c5nc6nc(N7CCN(CCO)CC7)ncc6cc5-c5ccccc5)cc4)CC3)[nH]2)cn1 | 38 | 180 |  |  | 
14 | CN(C)CCN1CCN(c2ncc3cc(-c4ccccc4)c(-c4ccc(CN5CCC(c6nnc(-c7ccc(=O)[nH]c7)[nH]6)CC5)cc4)nc3n2)CC1 | 69 | 98 |  |  | 800
15 | CN(C)CCN1CCN(c2ncc3cc(-c4ccccc4)c(-c4ccc(CN5CCC(c6nnc(-c7ccc(N)nc7)[nH]6)CC5)cc4)nc3n2)CC1 | 37 | 140 |  |  | 
16 | O=c1ccc(-c2nnc(C3CCN(Cc4ccc(-c5nc6nc(N7CCN(CCO)CC7)ncc6cc5-c5ccccc5)cc4)CC3)[nH]2)c[nH]1 | 127 | 284 |  |  | 6800

More lines, in order of falling IC50 [1], values ahead:

Row | IC50 [1] [nM] | IC50 [2] [nM] | IC50 [4] [nM] | IC50 [5] [nM] | Structure (SMILES) | IC50 [3] [nM]
17 | 37 | 80 |  |  | OCCN1CCN(c2ncc3cc(-c4ccccc4)c(-c4ccc(CN5CCC(c6nc(-c7ncccn7)n[nH]6)CC5)cc4)nc3n2)CC1 | > 10000
18 | 35 | 130 |  |  | CN(C)CCN1CCN(c2ncc3cc(-c4ccccc4)c(-c4ccc(CN5CCC(c6nnc(-c7ncccn7)[nH]6)CC5)cc4)nc3n2)CC1 | 4800
19 | 33 | 68 |  |  | CN(C)CCN1CCN(c2ncc3cc(-c4ccccc4)c(-c4ccc(CN5CCC(c6nnc(-c7cc[n+]([O-])cc7)[nH]6)CC5)cc4)nc3n2)CC1 | 7900
20 | 26 | 165 | 4 | 33 | Nc1ccc(-c2nnc(C3CCN(Cc4ccc(-c5nc6cc[nH]c(=O)c6cc5-c5ccccc5)cc4)CC3)[nH]2)cn1 | 10000
21 | 25 | 40 |  |  | CN1CCN(c2ncc3cc(-c4ccccc4)c(-c4ccc(CN5CCC(c6nnc(-c7ncccn7)[nH]6)CC5)cc4)nc3n2)CC1 | 
22 | 23 | 69 | 7 | 44 | O=c1[nH]ccc2nc(-c3ccc(CN4CCC(c5nnc(-c6ncccn6)[nH]5)CC4)cc3)c(-c3ccccc3)cc12 | > 10000
23 | 20 | 84 |  |  | CN1CCN(c2ncc3cc(-c4ccccc4)c(-c4ccc(CN5CCC(c6nnc(-c7ccc(N)nc7)[nH]6)CC5)cc4)nc3n2)CC1 | 6100
24 | 18 | 92 |  |  | CN1CCN(c2ccc3nc(-c4ccccc4)c(-c4ccc(CN5CCC(c6nnc(-c7ccccn7)[nH]6)CC5)cc4)nc3n2)CC1 | 
25 | 16 | 224 | 3.5 | 26 | O=C1NCCc2nc(-c3ccc(CN4CCC(c5nnc(-c6ccccn6)[nH]5)CC4)cc3)c(-c3ccccc3)cc21 | 2500
26 | 13 | 48 |  |  | OCCN1CCN(c2ccc3nc(-c4ccccc4)c(-c4ccc(CN5CCC(c6nnc(-c7ccccn7)[nH]6)CC5)cc4)nc3n2)CC1 | 
27 | 10 | 39 | 4 | 4 | CN(C)CCN1CCN(c2ncc3cc(-c4ccccc4)c(-c4ccc(CN5CCC(c6nnc(-c7ccccn7)[nH]6)CC5)cc4)nc3n2)CC1 | 2100
28 | 10 | 43 |  |  | CN(C)CCN1CCN(c2ccc3nc(-c4ccccc4)c(-c4ccc(CN5CCC(c6nnc(-c7ccccn7)[nH]6)CC5)cc4)nc3n2)CC1 | 
